How the values were obtained:
Format in all cases: cell-based
[1] = tested on: elderly human dermal fibroblasts (HDF); test: SA-β-galactosidase activity assay; conditions: 1 µM
Experimental: (§1) Human dermal fibroblasts (HDFs) retrieved from skin samples of neonatal (No. GM21811, Coriell Institute; No. DFM021711A, Zen Bio) and octogenarian (No. AG07135; AG13993; AG09271; AG10884; all from Coriell Institute) were used. All donors were reported as “healthy”. For all experiments, HDFs were seeded at 1x10^4 cells per cm2 of growth area in minimal essential medium Eagle-Earle (MEM) supplemented with 15% fetal bovine serum (FBS), 2 mM L-glutamine, and 1x antibiotic-antimycotic (all from Gibco, Thermo Fisher Scientific). Only early passage dividing fibroblasts (up to passage 3-5) with cumulative population doubling level PDL < 24 were used.
(§2) For image analysis, both live-cell phenotypes (mitotic duration, lagging chromosomes) and fixed-cell experiments (protein intensity, k-fiber intensity, KT distances, FISH, MN counts, cGAS positivity and SA biomarkers) were blindly quantified using ImageJ/Fiji software. […] DNA aggregates co-localizing with cGAS were scored as MN positive for cGAS. For the analysis of SA biomarkers (53bpl/p21 and SA-β-galactosidase), fluorescence intensity thresholds were set and used consistently for all samples within each experiment. […]

[2] = tested on: elderly human dermal fibroblasts (HDF); test: Interphase FISH aneusomy index of chromosomes 7, 12 and 18; conditions: 1 µM
Experimental: as §1
For FISH, MN counts, cGAS immunofluorescence and SA biomarkers, images were captured with the IN Cell Analyzer 2000 (GE Healthcare, UK) equipped with a Photometrics CoolSNAP K4 camera and driven by the GE IN Cell Analyzer 2000 v5.2 software, using a Nikon 20x/0.45 NA Plan Fluor objective and a Nikon 40x/0.95 NA Plan Fluor objective, respectively.
1 µM of UMK57 was used to enhance kinesin-13 activity during the time periods indicated for each experiment.
(§3) FISH was used to score aneusomy indexes (Interphase FISH; FIGS. 4D, 5C) and chromosome mis-segregation (MS) rates. MS rates were scored by Cyto-D FISH (FIGS. 4E and 5D), or by FISH on STLC-washed-out fibroblasts (FIGS. 1G,H). […]

[3] = tested on: neonatal (N) human dermal fibroblasts (HDF); test: Mitotic duration by long-term phase-contrast time-lapse microscopy, neonatal cells; conditions: 1 µM, 24 hrs (FIG. 4A)
Experimental: as §1, §2
(§4) FIG. 4: Small molecule agonist of MCAK activity UMK57 rescues age-associated CIN and delays senescence. […] (D) Aneusomy index of chromosomes 7, 12 and 18 measured by interphase FISH analysis. […]

[4] = tested on: elderly human dermal fibroblasts (HDF); test: Calcium-stable k-fiber intensity analysis in metaphase; conditions: 1 µM
Experimental: Human dermal fibroblasts (HDFs) retrieved from skin samples of neonatal (No. GM21811, Coriell Institute; No. DFM021711A, Zen Bio) and octogenarian (No. AG07135; AG13993; AG09271; AG10884; all from Coriell Institute) were used. All donors were reported as “healthy”. For all experiments, HDFs were seeded at 1x10^4 cells per cm2 of growth area in minimal essential medium Eagle-Earle (MEM) supplemented with 15% fetal bovine serum (FBS), 2 mM L-glutamine, and 1x antibiotic-antimycotic (all from Gibco, Thermo Fisher Scientific). Only early passage dividing fibroblasts (up to passage 3-5) with cumulative population doubling level PDL < 24 were used. […]
In fluorescence microscopy, cells with calcium-stabilized k-fibers or stained for specific kinetochore/centromere-bound proteins (Aurora B/Aim-1, Hec1/Ndc80, MCAK, Plk1, pAuroraB T232 and ACA) were imaged using a Zeiss AxioImager Z1 (Carl Zeiss, Oberkochen, Germany) motorized upright epifluorescence microscope, equipped with an Axiocam MR camera and operated by the Zeiss Axiovision v4.7 software. […]
For image analysis, both live-cell phenotypes (mitotic duration, lagging chromosomes) and fixed-cell experiments (protein intensity, k-fiber intensity, KT distances, FISH, MN counts, cGAS positivity and SA biomarkers) were blindly quantified using ImageJ/Fiji software. […] DNA aggregates co-localizing with cGAS were scored as MN positive for cGAS. […]

[5] = tested on: elderly human dermal fibroblasts (HDF); test: Mitotic duration by long-term phase-contrast time-lapse microscopy, elderly cells
Experimental: as §1, §2, §4

[6] = tested on: elderly human dermal fibroblasts (HDF); test: 53BP1/p21 double immunostaining senescence biomarkers; conditions: 1 µM
Experimental: as §1
For immunofluorescence, fibroblasts were grown on sterilized glass coverslips coated with 50 µg/ml fibronectin (F1141, Sigma-Aldrich) and fixed with 4% paraformaldehyde in PBS for 20 min. […]
as §2

[7] = tested on: elderly human dermal fibroblasts (HDF); test: Cyto-D FISH chromosome mis-segregation in cytokinesis-blocked binucleated (BN) cells; conditions: 1 µM
Experimental: as §1
Proteasome inhibitor MG-132 (474790, EMD Millipore) was used at 5 µM for 2 hrs to arrest cells at the metaphase stage. Cytochalasin D (C8273, Sigma-Aldrich) was used at 1 µM for 24 hrs to block cytokinesis. Fibroblasts were treated with 2.5 µM STLC (2191, TOCRIS) for 5 hrs to inhibit kinesin-5 activity and induce monopolar spindles, followed by a washout into fresh medium with 500 nM of Aurora kinase B inhibitor ZM447439 (S1103, Selleckchem) to potentiate chromosome segregation errors. […]
as §3

[8] = tested on: elderly human dermal fibroblasts (HDF); test: Micronuclei (MN) counts; conditions: 1 µM, 24-hour exposure (FIG. 4F)
Experimental: as §1, §2

`Cc1ccc(-c2csc3ncnc(N4CCCC4)c23)cc1` [UMK57, 4-Pyrrolidin-1-yl-5-p-tolyl-thieno[2,3-d] pyrimidine] was tested, and the “percentage of cells exhibiting SA-β-galactosidase activity” value ([1]; 24-hour treatment (FIG. 4H)) was “partially rescue”, the “senescence markers: SA-β-gal positive cells” value ([1]; 96 hrs (FIG. 5F)) was “partial rescue” and the “levels of aneuploidy (aneusomy index, interphase FISH)” value ([2]; 24 hrs (FIG. 4D)) was “decreases the levels of aneuploidy”. The “aneuploidy (interphase FISH)” value ([2]; 96 hours (FIG. 5C)) was “inhibited”, the “effect on the mitotic progression of neonatal cultures” value [3] was “no noticeable effect” and the “number of stable k-MT attachments in metaphase (calcium-stable k-fiber intensity)” value ([4]; 24 hrs (FIG. 4B,C)) was “decreases the number of stable k-MT attachments in metaphase”. The “k-fiber intensity levels in metaphase” value ([4]; 96 hours (FIG. 5B)) was “decreased k-fiber intensity levels”, the “mitotic delay of elderly cells” value ([5]; 1 µM, 96-hour treatment (FIG. 5A)) was “rescued” and the “concentration sufficient to rescue the increased mitotic duration in elderly cells” value ([5]; increasing concentrations, 24-hour time-lapse (FIG. 4A)) was 1 µM. The “percentage of cells exhibiting the senescence biomarkers 53bp1+p21” value ([6]; 24-hour treatment (FIG. 4G)) was “partially rescue”, the “senescence markers: 53BP1/p21 positive cells” value ([6]; 96 hrs (FIG. 5E)) was “partial rescue” and the “chromosome mis-segregation rate in binucleated (BN) cells” value ([7]; 24 hrs, cytochalasin D (FIG. 4E)) was “decreases”. For the same compound, the “chromosome mis-segregation (BN cells FISH)” value ([7]; 96 hours (FIG. 5D)) was “inhibited” and the “MN (micronuclei) levels” value [8] was “partly decreased”.

— patent publication US20230346785A1, “4-PYRROLIDIN-1-Yl-5-P-TOLYL-THIENO[2,3-D] PYRIMIDINE FOR USE IN THE TREATMENT OF AGING-ASSOCIATED AND PREMATURE AGING DISEASES THROUGH RESTORED CHROMOSOMAL STABILITY AND INHIBITION OF CELLULAR SENESCENCE” (IBMC - INSTITUTO DE BIOLOGIA MOLECULAR E CELULAR, priority 2020, published 2023)
